Test results: a melting point compilation (Tetko et al.; mined from patent text by program, amines drawn as free bases though some values may be those of a salt)

Structure (SMILES) | melting point
Nc1ccc2cnc(Nc3ccc(F)cc3)nc2n1 | 245 to 248 °C
O=[N+]([O-])c1cc(C(F)(F)F)cc(C(F)(F)F)c1S(=O)(=O)Oc1ccccc1 | 83 to 84 °C
Cc1c(-c2ccc(O)cc2)n(Cc2ccc(OCCN3C[C@@H]4CC[C@H]3C4)cc2)c2ccc(O)cc12 | 125 to 130 °C
N#Cc1cnn2c(C(F)(F)F)cc(-c3cccc(Cl)c3)nc12 | 204 °C
CCCCCCC[C@H]1CC[C@H](CCc2ccc(-c3ccc(Br)cc3F)cc2)CC1 | 54 °C
Cc1c(C)c(Cl)c(Cl)c(Cl)c1Cl | 85 to 89 °C
O=C(Nc1ccc(-n2nc(C(F)(F)F)cc2C(F)(F)F)cc1)c1c(F)cccc1Cl | 165 to 167 °C
CN1C(=O)Cn2c(nnc2C(F)(F)F)-c2cc(Cl)ccc21 | 186 to 187 °C
Cn1nc(-c2cc(F)c([N+](=O)[O-])cc2F)cc1C(F)(F)F | 80 to 81 °C
CCOC(=O)c1ccc(-c2cccc(-c3ccc4c(c3)C(C)(C)CCC4(C)C)c2O)cc1 | 121 °C
CN(C)CCOc1ccc(-c2nnc(CSCCOc3ccccc3)o2)cc1 | 62 to 64 °C
CCOC(OCC)N1CCNC1=N[N+](=O)[O-] | 100 to 102 °C
CCCCc1oc2ccccc2c1C(Sc1nc2ccccc2s1)c1ccc(-c2ccc(O)cc2)cc1 (configuration not stated) | 130 to 132 °C
Oc1ccc(OCCCCCCCCOc2ccc(O)cc2)cc1 | 151 to 154 °C
ClCc1cc2cccnc2s1 | 47 to 49 °C
O=c1cccc(-c2ccc(Cl)cc2)[nH]1 | 200 to 203 °C

Structure (SMILES) | melting point
NC(=O)NC1CCC(O)c2ccccc21 (configuration not stated) | 170 to 176 °C
OCC1OC(n2cnc3c(NNC4COc5ccccc5C4)ncnc32)C(O)C1O (configuration not stated) | 109 to 112 °C
Cc1cc(-c2ccc(C(F)(F)F)nc2)cc(-c2cccc(-c3cccc(S(=O)(=O)NC(C)(C)C)c3)n2)n1 | 187 to 188 °C
CON=C(c1ccccc1)c1ccc2c(c1)NC(=O)CO2 | 147 to 149 °C
O=C(COc1ccccc1Br)c1ccccc1 | 112 to 113 °C
O=C1NS(=O)(=O)c2cccc(Cl)c21 | 210 to 212 °C
Clc1ccc(-c2ccc(Cl)nn2)cc1 | 202 to 204 °C
CCOc1nc(NCc2ccco2)nc(Nc2ccc3[nH]c(C(F)(F)F)nc3c2)n1 | 188 to 190 °C
COCC1CN(c2ccc(C3CCC4(CC3)OCCO4)nc2)C(=O)O1 (racemic) | 93 to 94 °C
Cn1c(=O)n2nc(CO)cc2c2ccccc21 | 183 to 184 °C
CN1CCN(C2=Nc3cc(C(F)(F)F)ccc3Nc3nn(C)nc32)CC1 | 109 to 111 °C
Cc1cc(Cn2nc(C(F)(F)F)cc2C(F)(F)F)ccc1N1C(=O)c2cccc(F)c2C1=O | 158 to 159 °C
OC(CN1CCN(Cc2ccccc2)CC1)Cn1c2ccc(Br)cc2c2cc(Br)ccc21 (configuration not stated) | 70 to 75 °C
CC(=O)C1CCC2C3CCC4CC(O)CCC4(C)C3C(OC(=O)CCl)CC12C (configuration not stated) | 83 to 86 °C
Cc1ccccc1NN=C(Cl)c1ccccc1 | 64.5 to 66 °C
CC(=O)c1ccc(C(F)(F)C(F)(F)c2ccccc2)cc1 | 128 to 133 °C

Further lines, results first:

melting point | Structure (SMILES)
98 to 103 °C | COC(=O)C=C(C)c1ccc(CC(C)(C)NCC(O)c2ccccc2)cc1 (configuration not stated)
41 to 42 °C | C[C@@H](O)C(=O)OC(C)(C)C
242 °C | CC1(C)CC(O)C(C)(C)c2cc(Cn3cccn3)c(/C=C/c3ccc(C(=O)O)cc3)cc21 (configuration not stated)
166 to 169 °C | Cn1nc(-c2cccc(Br)c2)cc1C(=O)O
88 to 97 °C | CCCCCCCCCCCCc1cc(C(C(=O)Nc2c(OC)cc(OC)cc2OC)c2ccccc2)on1 (configuration not stated)
104 °C | CCOC(=O)Cc1ccc(NC(=O)c2cc(Cl)ccc2OC)cc1
> 200 °C | CCn1c(C)nc(N2CCc3nc(N)sc3CC2)c([N+](=O)[O-])c1=O
236 to 237 °C | CCn1c(=O)c2c(nc(C=Cc3cc(OC)ccc3S(N)(=O)=O)n2C)n(CC)c1=O
52 to 55 °C | CCCCN(C1CS(=O)(=O)c2cc([N+](=O)[O-])ccc21)S(C)(=O)=O (configuration not stated)
133 to 136 °C | CCC(C(C)=CC(CNC(=O)c1nc[nH]c1C)=NO)[N+](=O)[O-] (configuration not stated)
207 to 211 °C | CS(=O)(=O)c1ccc(COc2cc(C=C3SC(=S)N(CC(=O)O)C3=O)ccc2OCc2ccccc2)cc1
183 °C | CCN1C(=O)CCCc2c1ccc(Nc1ncc(Cl)c(Nc3ccccc3S(=O)(=O)N(C)C)n1)c2OC
81 to 81.5 °C | CC(C)c1nn2ccccc2c1C=O
111 to 115 °C | CC(=O)NCC#CCn1cncc1C
101 to 103 °C | Cc1[nH]cnc1CSCCSC#N
98 to 100 °C | CCOC(=O)c1cccn2cc(C(OCC)OCC)nc12
176 to 178 °C | C=c1c(=O)[nH]c2n1Cc1cc(OCCCC(=O)N(C)C3CCCCC3)ccc1N=2
194 to 198 °C | CCOc1cc2ncc(C#N)c(Nc3ccc(F)c(Cl)c3)c2cc1OCC
226 to 228 °C | CCCCn1cc(C(=O)OCC)c(=O)c2oc3ccc(Cl)cc3c(=O)c21
137 to 138 °C | CC(C)(C)c1ccc(CO)cc1NC(=O)CC1c2ccccc2Oc2ccccc21

melting point | Structure (SMILES)
185 °C | CCn1c(=O)c2c(nc(/C=C/c3ccc(OCc4ccccc4)cc3)n2C)n(CC)c1=O
189 to 190 °C | C#CCNc1cc(C(=O)OCC)cc(S(N)(=O)=O)c1Oc1ccccc1
252 to 253 °C | COc1cc(C(=O)O)cc2ccc3ccccc3c(=O)c12
256 to 257 °C | CNC(=O)NS(=O)(=O)c1cc2c(cc1OC)OCC(NC(=O)c1cc(Cl)ccc1OC)C2 (configuration not stated)
138 to 139 °C | CCCCC1OC(=O)c2cc(NC(C)=O)ccc21 (configuration not stated)
144 °C | COc1ccccc1N(CC(=O)OC(C)(C)C)C(=O)CN1C(=O)c2ccccc2C1=O
220 °C | CC(C)CCNCCCS(=O)(=O)O
82 to 88 °C | CNC(=S)C1(c2cccnc2)CCCCC1=CCOc1ccc(O)cc1 (configuration not stated)
247 °C | Cc1c(C(=O)Nc2ccc(N3CCC(O)CC3)c(C#N)c2)cnn1-c1ccc(Cl)cc1
> 260 °C | CCC(NC(=O)c1c(NC(C)=O)c(NC(C)=O)cc2c1OCCO2)N1CCCCC1 (configuration not stated)
205 to 207 °C | COC(=O)C1=C(C)NC(C)=C(C(=O)OC)C1c1ccc(F)c(Nc2c(NCCCN3CCC(c4cccc(OC)c4)CC3)c(=O)c2=O)c1
88 to 90 °C | CCC1CCC(=NO)C=C1c1ccc(OCC(=O)O)c(Cl)c1Cl (configuration not stated)
260 °C | CNc1ncc2c(=O)n(C)c(=O)n(C)c2n1
110 to 111 °C | Cc1oc(CCOc2ccc(CC3SC(=O)NC3=O)cn2)nc1Cc1ccccc1 (configuration not stated)
52 to 53 °C | COC1C(O)CCC(O)(CSC)C1C1(C)OC1CC=C(C)C (configuration not stated)
117 to 118 °C | CS(=O)(=O)c1ccc(-c2cnn(CC(F)(F)F)c(=O)c2OCCN2CCCCC2)cc1
133 to 135 °C | CCCc1c(CSc2nnc(S)s2)ccc(C(C)=O)c1O
267 to 269 °C | COc1cc(C2=NNC(=O)Cc3cc4c(cc32)OCO4)ccc1[N+](=O)[O-]
146 to 149 °C | C=C1OC(=NN)C(c2ccccc2)C(=O)N1C(C)(C)C(=O)Nc1cc(Cl)cc(Cl)c1 (configuration not stated)
224 to 226 °C | CC1CNCCN1c1c(F)c(N)c2c(=O)c(C(=O)O)cn(C3CC3)c2c1F (configuration not stated)
